PubChem BioAssay (NCI)
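Each compound was tested at five concentrations against cells in 96-well plates for 48 hours. Definition used: TGI = concentration required for complete inhibition of growth.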

Tests used:
Assay in all cases: NCI-60 cell line screen, 48 h
HCT-116 colon = test system: HCT-116 colon
UO-31 renal = test system: UO-31 renal
K-562 leukemia = test system: K-562 leukemia
SW-620 colon = test system: SW-620 colon
HS 578T breast = test system: HS 578T breast
OVCAR-3 ovarian = test system: OVCAR-3 ovarian
DU-145 prostate = test system: DU-145 prostate
OVCAR-5 ovarian = test system: OVCAR-5 ovarian
RXF 393 renal = test system: RXF 393 renal
786-0 renal = test system: 786-0 renal
ACHN renal = test system: ACHN renal
HOP-92 NSCLC = test system: HOP-92 NSCLC
LOX IMVI melanoma = test system: LOX IMVI melanoma
SK-OV-3 ovarian = test system: SK-OV-3 ovarian
MDA-MB-231 breast = test system: MDA-MB-231 breast
CAKI-1 renal = test system: CAKI-1 renal
NCI-H522 lung = test system: NCI-H522 lung
HL-60(TB) leukemia = test system: HL-60(TB) leukemia
UACC-62 melanoma = test system: UACC-62 melanoma
NCI-H226 lung = test system: NCI-H226 lung
IGROV1 ovarian = test system: IGROV1 ovarian
MCF7 breast = test system: MCF7 breast
KM12 colon = test system: KM12 colon
SNB-19 CNS = test system: SNB-19 CNS
RPMI-8226 leukemia = test system: RPMI-8226 leukemia
MDA-N = test system: MDA-N
T-47D breast = test system: T-47D breast
SK-MEL-28 melanoma = test system: SK-MEL-28 melanoma
MOLT-4 leukemia = test system: MOLT-4 leukemia
M14 melanoma = test system: M14 melanoma
A549 NSCLC = test system: A549 NSCLC
NCI-H460 lung = test system: NCI-H460 lung
MALME-3M melanoma = test system: MALME-3M melanoma
SF-268 CNS = test system: SF-268 CNS
SF-539 CNS = test system: SF-539 CNS
NCI-H23 lung = test system: NCI-H23 lung
MDA-MB-435 = test system: MDA-MB-435
OVCAR-8 ovarian = test system: OVCAR-8 ovarian
COLO 205 colon = test system: COLO 205 colon
SF-295 CNS = test system: SF-295 CNS
CCRF-CEM leukemia = test system: CCRF-CEM leukemia
TK-10 renal = test system: TK-10 renal
SNB-75 CNS = test system: SNB-75 CNS
SK-MEL-5 melanoma = test system: SK-MEL-5 melanoma
UACC-257 melanoma = test system: UACC-257 melanoma
OVCAR-4 ovarian = test system: OVCAR-4 ovarian
SN12C renal = test system: SN12C renal
EKVX NSCLC = test system: EKVX NSCLC
HT29 colon = test system: HT29 colon
SR leukemia = test system: SR leukemia
HCC-2998 colon = test system: HCC-2998 colon
HOP-62 NSCLC = test system: HOP-62 NSCLC
PC-3 prostate = test system: PC-3 prostate
NCI/ADR-RES ovarian = test system: NCI/ADR-RES ovarian
U251 CNS = test system: U251 CNS
SK-MEL-2 melanoma = test system: SK-MEL-2 melanoma
HCT-15 colon = test system: HCT-15 colon

Compound `CC1(C)C=C(/C=N/Nc2ccc(Br)cc2)C(C#N)=C(O)C1(C#N)C#N` has a TGI (HCT-116 colon) of over 100 µM, a TGI (UO-31 renal) of 86 µM and a TGI (K-562 leukemia) of over 100 µM. The TGI (SW-620 colon) was over 100 µM, the TGI (HS 578T breast) was over 100 µM and the TGI (OVCAR-3 ovarian) was over 100 µM. It also gave a TGI (DU-145 prostate) of over 100 µM, a TGI (OVCAR-5 ovarian) of over 100 µM and a TGI (RXF 393 renal) of 91.3 µM. For the same compound, the TGI (786-0 renal) was over 100 µM, the TGI (ACHN renal) was over 100 µM and the TGI (HOP-92 NSCLC) was 65.7 µM. It also gave a TGI (LOX IMVI melanoma) of over 100 µM, a TGI (SK-OV-3 ovarian) of over 100 µM and a TGI (MDA-MB-231 breast) of over 100 µM. It also gave a TGI (CAKI-1 renal) of 95.4 µM, a TGI (NCI-H522 lung) of over 100 µM and a TGI (HL-60(TB) leukemia) of 88.1 µM. It also gave a TGI (UACC-62 melanoma) of over 100 µM, a TGI (NCI-H226 lung) of over 100 µM and a TGI (IGROV1 ovarian) of over 100 µM. It also gave a TGI (MCF7 breast) of over 100 µM, a TGI (KM12 colon) of over 100 µM and a TGI (SNB-19 CNS) of over 100 µM. The TGI (RPMI-8226 leukemia) was over 100 µM, the TGI (MDA-N) was over 100 µM and the TGI (T-47D breast) was over 100 µM. The TGI (SK-MEL-28 melanoma) was over 100 µM, the TGI (MOLT-4 leukemia) was 89.8 µM and the TGI (M14 melanoma) was over 100 µM. It also gave a TGI (A549 NSCLC) of over 100 µM, a TGI (NCI-H460 lung) of over 100 µM and a TGI (MALME-3M melanoma) of over 100 µM. The TGI (SF-268 CNS) was over 100 µM, the TGI (SF-539 CNS) was over 100 µM and the TGI (NCI-H23 lung) was over 100 µM. The TGI (MDA-MB-435) was over 100 µM, the TGI (OVCAR-8 ovarian) was over 100 µM and the TGI (COLO 205 colon) was 36.8 µM. It also gave a TGI (SF-295 CNS) of over 100 µM, a TGI (CCRF-CEM leukemia) of over 100 µM and a TGI (TK-10 renal) of over 100 µM. It also gave a TGI (SNB-75 CNS) of over 100 µM, a TGI (SK-MEL-5 melanoma) of over 100 µM and a TGI (UACC-257 melanoma) of over 100 µM. The TGI (OVCAR-4 ovarian) was over 100 µM, the TGI (SN12C renal) was over 100 µM and the TGI (EKVX NSCLC) was over 100 µM. For the same compound, the TGI (HT29 colon) was over 100 µM, the TGI (SR leukemia) was 75.5 µM and the TGI (HCC-2998 colon) was over 100 µM. For the same compound, the TGI (HOP-62 NSCLC) was over 100 µM, the TGI (PC-3 prostate) was 63.9 µM and the TGI (NCI/ADR-RES ovarian) was over 100 µM.
Work on `CC1(C)C=[N+]([O-])C(C)(C)N1` yielded a TGI (HCT-116 colon) of over 100 µM, a TGI (UO-31 renal) of over 100 µM and a TGI (K-562 leukemia) of over 100 µM. It also gave a TGI (SW-620 colon) of over 100 µM, a TGI (HS 578T breast) of over 100 µM and a TGI (OVCAR-3 ovarian) of over 100 µM. It also gave a TGI (DU-145 prostate) of over 100 µM, a TGI (OVCAR-5 ovarian) of over 100 µM and a TGI (RXF 393 renal) of over 100 µM. It also gave a TGI (786-0 renal) of over 100 µM, a TGI (ACHN renal) of over 100 µM and a TGI (HOP-92 NSCLC) of over 100 µM. For the same compound, the TGI (LOX IMVI melanoma) was over 100 µM, the TGI (SK-OV-3 ovarian) was over 100 µM and the TGI (MDA-MB-231 breast) was over 100 µM. For the same compound, the TGI (CAKI-1 renal) was over 100 µM, the TGI (HL-60(TB) leukemia) was over 100 µM and the TGI (UACC-62 melanoma) was over 100 µM. For the same compound, the TGI (NCI-H226 lung) was over 100 µM, the TGI (IGROV1 ovarian) was over 100 µM and the TGI (MCF7 breast) was over 100 µM. For the same compound, the TGI (KM12 colon) was over 100 µM, the TGI (SNB-19 CNS) was over 100 µM and the TGI (RPMI-8226 leukemia) was over 100 µM. The TGI (MDA-N) was over 100 µM, the TGI (T-47D breast) was over 100 µM and the TGI (SK-MEL-28 melanoma) was over 100 µM. It also gave a TGI (MOLT-4 leukemia) of over 100 µM, a TGI (M14 melanoma) of over 100 µM and a TGI (A549 NSCLC) of over 100 µM. The TGI (NCI-H460 lung) was over 100 µM, the TGI (MALME-3M melanoma) was over 100 µM and the TGI (SF-268 CNS) was over 100 µM. It also gave a TGI (SF-539 CNS) of over 100 µM, a TGI (NCI-H23 lung) of over 100 µM and a TGI (MDA-MB-435) of over 100 µM. It also gave a TGI (OVCAR-8 ovarian) of over 100 µM, a TGI (COLO 205 colon) of over 100 µM and a TGI (SF-295 CNS) of over 100 µM. The TGI (CCRF-CEM leukemia) was over 100 µM, the TGI (U251 CNS) was over 100 µM and the TGI (TK-10 renal) was over 100 µM. The TGI (SNB-75 CNS) was over 100 µM, the TGI (SK-MEL-5 melanoma) was over 100 µM and the TGI (SK-MEL-2 melanoma) was over 100 µM. For the same compound, the TGI (UACC-257 melanoma) was over 100 µM, the TGI (OVCAR-4 ovarian) was over 100 µM and the TGI (SN12C renal) was over 100 µM. For the same compound, the TGI (EKVX NSCLC) was over 100 µM, the TGI (HT29 colon) was over 100 µM and the TGI (SR leukemia) was over 100 µM. It also gave a TGI (HCC-2998 colon) of over 100 µM, a TGI (HCT-15 colon) of over 100 µM and a TGI (HOP-62 NSCLC) of over 100 µM. For the same compound, the TGI (PC-3 prostate) was over 100 µM and the TGI (NCI/ADR-RES ovarian) was over 100 µM.
